Source: publication PMC9424819, “Evaluation of commonly used cardiovascular drugs in inhibiting vonoprazan metabolism in vitro and in vivo” (Frontiers in Pharmacology, 2022)
Structures can show the parent of a compound that is named as a salt. Where two headings read alike, the source gives them in different places.

Tests used:
[1] = Pharmacokinetics of vonoprazan and MI in rats with or without inhibitor pretreatment; format: in vivo, Sprague-Dawley rats; settings: for AUC(0-inf) / AUC(0-t) / Cmax / Tmax / CL/F / MRT last / MRT inf / Vd/F / half-life: male, Sprague-Dawley, rat, plasma, po, 2 mg/kg; for CL/F: read-out: CLz/F (converted); for MRT last: read-out: MRT(0-t); for MRT inf: read-out: MRT(0-∞); for Vd/F: read-out: Vz/F; for half-life: read-out: t1/2z (converted)
Experimental: The Experimental Animal Research Center of Wenzhou Medical University provided specific pathogen-free (SPF) Sprague-Dawley rats (male, 350 ± 20 g, 3 months old). This research was conducted following the principles of the Basel Declaration. […] After one week of rearing in the new environment and fasting overnight, the drug could be gavaged.
Rats were randomly divided into three groups (n = 6). […] After 7 days, on the seventh day, all groups had gavage at a single dosage of 2 mg/kg vonoprazan.
Centrifugation at 4,000 rpm for 10 min was performed to obtain 100 µL of plasma, to which was added 200 µL of acetonitrile and 20 µL of diazepam IS. After vortex mixing and centrifugation at 13,000 rpm for 5 min, 5 µL of supernatant was obtained for analysis by UPLC-MS/MS.
(§1) The concentrations of vonoprazan and MI that were detected by UPLC-MS/MS were applied to GraphPad 7.0 (GraphPad Software Inc., United States) to calculate IC50 and depict plasma concentration-time curves and Lineweaver–Burk and Dixon plots. The pharmacokinetic parameters of the compartment analysis were calculated using DAS (version 3.2.8; The People’s Hospital of Lishui) and expressed as mean ± standard deviation. The t-test was carried out by SPSS 25.0 (SPSS Inc., United States) to compare those parameters. p value < 0.05 was considered statistically significant.

[2] = test system: vonoprazan metabolism in rat liver microsomes (RLMs); test: Inhibition of vonoprazan metabolism (MI formation) in rat liver microsome incubation; format: in vitro ADME
Experimental: (§2) Eleven common-used cardiovascular drugs were chosen to detect their possible inhibition effect on vonoprazan. […] After preincubation at 37°C for 5 min in a shaking water bath, 20 mM NADPH was added to initiate the reaction, which lasted 30 min and was stopped with […] of acetonitrile. The mixture was vortexed after adding 20 µL of diazepam and then centrifugated at 13,000 rpm for 5 min. A 2 µL aliquot of the final supernatant was injected into the UPLC–MS/MS system for analysis. The relative inhibition was calculated according to the relative MI decrease compared to the control (vonoprazan naturally metabolized in RLMs). […] The same procedures were performed. Then, an inhibition mechanism experiment was conducted for further exploration. […] Both inhibitor and substrate were added to the incubation system described above. Every concentration match had three parallels. The MI concentration was detected using the same conditions to depict the Lineweaver–Burk and Dixon plots.
as §1

[3] = test system: vonoprazan metabolism (MI formation) in human liver microsomes; test: in vitro; settings: pH 7.4
[4] = test system: vonoprazan metabolism (MI formation) in rat liver microsomes; test: Inhibition of vonoprazan metabolism (MI formation) in rat liver microsome incubation; format: in vitro ADME; settings: rat, rat liver microsomes, pH 7.4, probe vonoprazan (10 µM), metabolite MI measured; RLMs, 10 µM vonoprazan, MI formation
Experimental: as §2, §1

[5] = amlodipine-pretreated group vs control group, rats
[6] = Amlodipine group (10 mg/kg amlodipine 7 days), single gavage 2 mg/kg vonoprazan, rat plasma
[7] = Control group (CMC-Na 7 days), single gavage 2 mg/kg vonoprazan, rat plasma

With O=C(O)c1cc(-c2ccccc2F)n(S(=O)(=O)c2cccnc2)c1 [MI, 5-(2-fluorophenyl)-1-(pyridin-3-ylsulfonyl)-1H-pyrrole-3-carboxylic acid] the “fall of CLz/F” value [1, 5] was 38%, the “fall of Vz/F” value [1, 5] was 57% and the “increase of AUC” value [1, 5] was 1.6 fold. The “increase of MRT (0-t)” value [1, 5] was 1.4 fold, the “increase of MRT (0-∞)” value [1, 5] was 1.2 fold and the AUC(0-inf) [1, 6] was 2580 ± 450 ng·h/mL. The AUC(0-t) [1, 6] was 2550 ± 459 ng·h/mL, the Cmax [1, 6] was 836 ± 176 ng/mL and the Tmax [1, 6] was 1.58 ± 0.67 h. For the same molecule, the CL/F [1, 6] was 13.2 mL/min/kg, the MRT last [1, 6] was 2.92 ± 0.19 h and the MRT inf [1, 6] was 3.11 ± 0.31 h. It also gave a Vd/F [1, 6] of 2.25 ± 1.11 L/kg, a half-life [1, 6] of 1.91 ± 0.76 h and an AUC(0-inf) [1, 7] of 1570 ± 189 ng·h/mL. The AUC(0-t) [1, 7] was 1540 ± 175 ng·h/mL, the Cmax [1, 7] was 766 ± 85.1 ng/mL and the Tmax [1, 7] was 1 h. It also gave a CL/F [1, 7] of 21.5 mL/min/kg, an MRT last [1, 7] of 2.13 ± 0.14 h and an MRT inf [1, 7] of 2.44 ± 0.26 h. For the same molecule, the Vd/F [1, 7] was 5.28 ± 2.5 L/kg and the half-life [1, 7] was 2.91 ± 1.51 h.

For COc1ccc([C@@H]2Sc3ccccc3N(CCN(C)C)C(=O)[C@@H]2OC(C)=O)cc1 [Diltiazem, diltiazem hydrochloride], the “inhibition effect on vonoprazan in preliminary in vitro evaluation” value ([2]; RLMs, roughly 100 µM drug) was “slightly increased inhibition effects”.

In the case of CNCc1cc(-c2ccccc2F)n(S(=O)(=O)c2cccnc2)c1 [Vonoprazan, vonoprazan], the “MRT(0-∞)” value [1, 6] is reported as 3.06 ± 0.38 h, the “decrease of CLz/F” value [1, 5] is reported as “approximately by half” and the “decrease of Vz/F” value [1, 5] is reported as “approximately by half”. The “increase of AUC” value [1, 5] was “nearly twice”, the “increase of Cmax” value [1, 5] was “nearly twice” and the “increase of Tmax” value [1, 5] was “nearly twice”. It also gave an AUC(0-inf) [1, 6] of 59 ± 20.9 ng·h/mL, an AUC(0-t) [1, 6] of 58.5 ± 21.1 ng·h/mL and a Cmax [1, 6] of 19 ± 8.3 ng/mL. The Tmax [1, 6] was 1.67 ± 0.52 h, the CL/F [1, 6] was 614 mL/min/kg and the MRT last [1, 6] was 2.93 ± 0.3 h. For the same molecule, the Vd/F [1, 6] was 95.5 ± 51.3 L/kg, the half-life [1, 6] was 1.73 ± 0.65 h and the AUC(0-inf) [1, 7] was 29.1 ± 5.31 ng·h/mL. The AUC(0-t) [1, 7] was 28.8 ± 5.14 ng·h/mL, the Cmax [1, 7] was 10.2 ± 1.88 ng/mL and the Tmax [1, 7] was 0.75 ± 0.27 h. It also gave a CL/F [1, 7] of 1180 mL/min/kg, an MRT last [1, 7] of 2.72 ± 0.09 h and an MRT inf [1, 7] of 2.87 ± 0.17 h. The Vd/F [1, 7] was 190 ± 41.6 L/kg and the half-life [1, 7] was 1.89 ± 0.37 h.

In the case of CCOC(=O)C1=C(COCCN)NC(C)=C(C(=O)OC)C1c1ccccc1Cl (centres unmarked) [Amlodipine, amlodipine besylate], the IC50 at 30 min [3] is reported as 7.2 µM, the IC50 at 30 min [4] is reported as 17 µM and the “inhibition mechanism on vonoprazan metabolism” value ([2]; RLMs and HLMs, Lineweaver–Burk and Dixon plots) is reported as “primarily competitive with some non-competitive inhibition”.
